Source: US6479437B1, “Herbicidal mixture containing a 3-heterocyclyl-substituted benzoyl derivative” (priority 1998, dated 2002)

Key:
Assay type in all cases: in vivo
Settings in all cases: adjuvant 0.25 and ENSOL 28 0.375 kg/ha where added, scale 0-100
ZEAMX (Zea mays, corn) = assay: Selective herbicidal activity post-emergence in the greenhouse (crop phytotoxicity)
Procedure: (§1) The culture containers used were plastic pots containing loamy sand with approximately 3.0% of humus as substrate. The seeds of the test plants were sown separately for each species.
(§2) For the post-emergence treatment, the test plants were grown to a plant height of from 3 to 15 cm, depending on the plant habit, and only then treated with the herbicidal mixture which had been suspended or emulsified in water. To this end, the test plants were either sown directly and grown in the same containers, or they were first grown separately as seedlings and transplanted into the test containers a few days prior to treatment.
(§3) Depending on the species, the plants were kept at 10-25° C. or 20-35° C. The test period extended over 2 to 4 weeks. During this time, the plants were tended, and their response to the individual treatments was evaluated.
(§4) Evaluation was carried out using a scale of from 0 to 100. 100 means no emergence of the plants, or complete destruction of at least the aerial parts, and 0 means no damage or normal course of growth.

[1] = test system: ABUTH (Abutilon theophrasti, velvetleaf); assay: Selective herbicidal activity post-emergence in the greenhouse
Procedure: as §1, §2, §3, §4

[2] = test system: POLPE (Polygonum persicaria, lady's thumb); assay: as above
Procedure: as §1, §2, §3, §4

[3] = test system: ECHCG (Echinochloa crus-galli, barnyardgrass); assay: as above
Procedure: as §1, §2, §3, §4

[4] = test system: SETVI (Setaria viridis, green foxtail); assay: as above
Procedure: as §1, §2, §3, §4

[5] = test system: CHEAL (Chenopodium album, lambsquarters); assay: as above
Procedure: as §1, §2, §3, §4

[6] = Table 1, EX. 1 0.0078 kg/ha a.s.
[7] = Table 2, EX. 1 0.0625 kg/ha a.s.
[8] = Table 8, EX. 1 0.0625 kg/ha a.s.
[9] = Table 20, EX. 1 0.0078 kg/ha a.s.
[10] = Table 5, EX. 1 0.0312 kg/ha a.s.
[11] = Table 17, EX. 1 0.0078 kg/ha a.s.
[12] = Table 19, EX. 1 0.0078 kg/ha a.s.
[13] = Table 21, EX. 1 0.0078 kg/ha a.s.
[14] = Table 11, EX. 1 0.0078 kg/ha a.s.

Cn1ncc(C(=O)c2ccc(S(C)(=O)=O)c(C3=NOCC3)c2Cl)c1O [EX. 1]
Phytotoxicity ZEAMX (ZEAMX (Zea mays, corn); [6]): 0
Phytotoxicity ZEAMX (ZEAMX (Zea mays, corn); [7]): 0
Phytotoxicity ZEAMX (ZEAMX (Zea mays, corn); [8]): 0
Phytotoxicity ZEAMX (ZEAMX (Zea mays, corn); [9]): 0
Phytotoxicity ABUTH ([1]; Table 4, EX. 1 0.0156 kg/ha a.s.): 20
Phytotoxicity ABUTH [1, 10]: 75
Phytotoxicity ABUTH ([1]; Table 16, EX. 1 0.0156 kg/ha a.s.): 20
Phytotoxicity POLPE [2, 11]: 20
Phytotoxicity POLPE ([2]; Table 18, EX. 1 0.0078 kg/ha a.s.): 70
Phytotoxicity POLPE [2, 12]: 70
Phytotoxicity POLPE [2, 13]: 70
Phytotoxicity ECHCG ([3]; Table 3, EX. 1 0.0625 kg/ha a.s.): 50
Phytotoxicity ECHCG [3, 10]: 030
Phytotoxicity ECHCG [3, 8]: 50
Phytotoxicity ECHCG ([3]; Table 9, EX. 1 0.0625 kg/ha a.s.): 50
Phytotoxicity ECHCG ([3]; Table 15, EX. 1 0.0625 kg/ha a.s.): 50
Phytotoxicity SETVI [4, 14]: 30
Phytotoxicity SETVI [4, 11]: 30
Phytotoxicity SETVI [4, 12]: 40
Phytotoxicity SETVI [4, 9]: 40
Phytotoxicity SETVI [4, 13]: 40
Phytotoxicity CHEAL [5, 6]: 20
Phytotoxicity CHEAL [5, 7]: 50
Phytotoxicity CHEAL ([5]; Table 6, EX. 1 0.0078 kg/ha a.s.): 20
Phytotoxicity CHEAL ([5]; Table 7, EX. 1 0.0156 kg/ha a.s.): 20
Phytotoxicity CHEAL ([5]; Table 10, EX. 1 0.0078 kg/ha a.s.): 20
Phytotoxicity CHEAL [5, 14]: 20
Phytotoxicity CHEAL ([5]; Table 12, EX. 1 0.0156 kg/ha a.s.): 20
Phytotoxicity CHEAL ([5]; Table 13, EX. 1 0.0156 kg/ha a.s.): 20
Phytotoxicity CHEAL ([5]; Table 14, EX. 1 0.0156 kg/ha a.s.): 20
